Reference: patent publication US11771709B2, “ALK protein degradation agent and anti-tumor application thereof” (ShanghaiTech University, priority 2017, dated 2023)

Tests used:
[1] = tested on: U118MG cells (FIG-ROS1 gene fusion); assay: Growth inhibition IC50 in ROS1 mutant glioblastoma cell line U118MG (72 hours); type: cell-based; conditions: Homo sapiens, U-118-MG, 72 h, read-out: Half Inhibitory Concentration (IC50) Mean
MOLM13 cells (FLT3-ITD) = assay: Growth inhibition IC50 in FLT3-ITD AML cell line MOLM13; type: cell-based; conditions: Homo sapiens, MOLM-13, read-out: Half Inhibitory Concentration (IC50) Mean
[2] = molecular target: T1, ALK protein in H3122 (EML4-ALK) cells (Homo sapiens, UniProt Q9UM73); assay: Western blot of ALK protein level (degradation, DC50), ALK phosphorylation and downstream signaling in H3122 cells; type: cell-based; conditions: for DC50: ALK protein degradation in H3122 cells
T1 construct: EML4 (Echinoderm microtubule-associated protein-like 4, Q9HC35) fusion partner, variant 1; host or cells: NCI-H3122 lung adenocarcinoma cells; the other entry of the earlier key: EML4 (Q9HC35, Echinoderm microtubule-associated protein-like 4)

[3] = tested on: NCI-H3122 (EML4-ALK, V1) cells; assay: Growth inhibition IC50 in lung cancer H3122 cells (Cell Titer Blue / Cell Titer Glo); conditions: Homo sapiens, NCI-H3122, H3122 cells
Experimental: (§1) SR (NPM-ALK) and NCI-H2228 (EML4-ALK, V3) cells were purchased from ATCC. […] All Cells were cultured in RPMI1640 medium with 10% FBS and Penicillin-Streptomycin in 37° C. incubator with 5% CO2.
(§2) Cells were seeded at specific density in 96 well plates one day before treatment. […] Viable cells were measured via CCK8 reagent and IC50s were calculated via Prism Graphad. Experiments were repeated at least three times.

SR (NPM-ALK) cells = assay: Growth inhibition IC50 in ALCL SR cells (CCK8/WST, 72 hours); type: cell-based; conditions: SR cells, WST
Experimental: as §1, §2

[4] = tested on: PC9 (EGFR, exon 19 del) cells; assay: Growth inhibition IC50 in EGFR mutant lung adenocarcinoma PC9 cells; type: cell-based; conditions: Homo sapiens, PC-9; PC9 cells, CTB, n ≥ 3; read-out: Half Inhibitory Concentration (IC50) Mean
Experimental: as §1, §2

[5] = tested on: PC9Brc1 (EGFR, exon 19 del+T790M) cells; assay: Growth inhibition IC50 in EGFR mutant lung cancer PC9Brc1 cells; type: cell-based; conditions: CTB, n ≥ 3, read-out: Half Inhibitory Concentration (IC50) Mean
Experimental: as §1, §2

[6] = molecular target: T2, ALK protein in SR (NPM-ALK) cells (Homo sapiens, UniProt Q9UM73); assay: Western blot of ALK protein level (degradation, DC50), ALK phosphorylation and downstream signaling in SR cells; type: cell-based; conditions: for DC50: ALK protein degradation in SR cells
T2 construct: NPM (nucleophosmin, NPM1, P06748) fusion partner; host or cells: SR (ALCL) cells; the other entry of the earlier key: NPM1 (P06748, Nucleophosmin)
Experimental: Cancer cells were seeded in 1 ml RPMI1640 medium in 24-well plate at the density of 3×10^5 or 1.5×10^5 cells/ml. […] Then cells were washed twice with PBS and lyzed in RIPA lysis buffer with Halt Proteinase and Phosphotase inhibitor. Equal amount of proteins were loaded to run SDS-PAGE gels after denature. The gels were blotted to PVDF membrane. After incubating with first and secondary antibodies, the images were developed using SuperSignal West Pico Chemiluminescent Substrate.
DC50 (concentration required to degrade protein by half) were calculated based on the intensity from western blot, and data were analyzed via Prism GraphPad with non-linear regression.

[7] = Ceritinib based ALK PROTAD compounds (Table 5)
[8] = 72 h, Brigatinib-based PROTAD molecules (Table 3)

T1 sequence (Q9UM73 with tags, fused parts or gaps): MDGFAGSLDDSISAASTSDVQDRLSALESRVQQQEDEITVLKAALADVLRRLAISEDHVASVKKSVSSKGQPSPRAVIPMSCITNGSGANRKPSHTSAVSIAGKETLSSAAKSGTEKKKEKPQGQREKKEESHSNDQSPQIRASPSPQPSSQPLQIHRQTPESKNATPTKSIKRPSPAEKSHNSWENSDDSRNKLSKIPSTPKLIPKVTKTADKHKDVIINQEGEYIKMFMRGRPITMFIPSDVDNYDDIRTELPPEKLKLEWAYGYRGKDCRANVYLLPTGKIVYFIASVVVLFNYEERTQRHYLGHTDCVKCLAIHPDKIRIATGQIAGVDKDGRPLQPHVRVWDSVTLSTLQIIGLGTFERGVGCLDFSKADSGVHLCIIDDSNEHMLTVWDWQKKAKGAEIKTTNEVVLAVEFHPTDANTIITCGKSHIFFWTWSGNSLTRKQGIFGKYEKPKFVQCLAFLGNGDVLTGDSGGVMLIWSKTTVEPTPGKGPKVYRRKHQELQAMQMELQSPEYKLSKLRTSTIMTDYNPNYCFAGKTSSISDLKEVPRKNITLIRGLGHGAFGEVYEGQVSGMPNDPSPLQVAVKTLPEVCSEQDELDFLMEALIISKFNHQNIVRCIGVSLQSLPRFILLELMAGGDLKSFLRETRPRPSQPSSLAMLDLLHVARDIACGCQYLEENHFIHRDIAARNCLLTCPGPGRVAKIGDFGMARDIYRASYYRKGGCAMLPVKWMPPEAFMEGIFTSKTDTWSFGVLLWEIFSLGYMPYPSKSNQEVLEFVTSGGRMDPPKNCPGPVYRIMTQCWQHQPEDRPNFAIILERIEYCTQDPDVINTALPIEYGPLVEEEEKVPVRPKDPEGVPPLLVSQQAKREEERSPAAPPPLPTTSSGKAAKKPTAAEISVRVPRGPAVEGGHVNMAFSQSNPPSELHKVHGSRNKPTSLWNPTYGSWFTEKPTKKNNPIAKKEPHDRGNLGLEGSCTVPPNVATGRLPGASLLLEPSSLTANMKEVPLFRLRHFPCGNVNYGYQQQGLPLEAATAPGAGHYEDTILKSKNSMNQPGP
T2 sequence (Q9UM73 with tags, fused parts or gaps): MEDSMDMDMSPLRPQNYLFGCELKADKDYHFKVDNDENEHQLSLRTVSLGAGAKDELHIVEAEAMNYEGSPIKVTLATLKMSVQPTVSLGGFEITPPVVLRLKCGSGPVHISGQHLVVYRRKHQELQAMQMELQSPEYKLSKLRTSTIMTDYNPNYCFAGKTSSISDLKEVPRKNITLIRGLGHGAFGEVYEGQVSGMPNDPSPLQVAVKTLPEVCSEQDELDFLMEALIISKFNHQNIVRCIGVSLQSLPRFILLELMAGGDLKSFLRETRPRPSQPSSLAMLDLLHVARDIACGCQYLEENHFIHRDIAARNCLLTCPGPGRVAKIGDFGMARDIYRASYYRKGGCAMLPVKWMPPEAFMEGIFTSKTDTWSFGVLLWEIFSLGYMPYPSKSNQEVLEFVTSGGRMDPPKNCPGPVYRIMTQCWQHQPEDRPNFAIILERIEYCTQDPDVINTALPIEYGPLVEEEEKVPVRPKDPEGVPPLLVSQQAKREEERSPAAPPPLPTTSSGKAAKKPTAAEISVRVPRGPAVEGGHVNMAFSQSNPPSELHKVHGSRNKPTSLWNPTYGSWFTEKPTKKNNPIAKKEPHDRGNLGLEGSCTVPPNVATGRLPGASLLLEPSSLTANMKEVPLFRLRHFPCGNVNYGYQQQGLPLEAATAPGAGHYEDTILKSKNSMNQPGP

| Compound | DC50 [2] [nM] | IC50 ([3]; CTB (Cell Titer Blue)) [nM] | also measured |
| --- | --- | --- | --- |
| C[C@@H](Oc1cc(-c2cnn(C3CCNCC3)c2)cnc1N)c1c(Cl)ccc(F)c1Cl [Crizotinib, reference compound] |  |  | IC50 [1]: 2570 nM; IC50 (MOLM13 cells (FLT3-ITD)): 291 nM |
| Cc1cc(Nc2ncc(Cl)c(Nc3ccccc3S(=O)(=O)C(C)C)n2)c(OC(C)C)cc1C1CCN(C(=O)CCCC(=O)N[C@H](C(=O)N2C[C@H](O)C[C@H]2C(=O)NCc2ccc(-c3scnc3C)cc2)C(C)(C)C)CC1 [SIAIS074018, (2S,4R)-1-((S)-2-(5-(4-(4-((5-chloro-4-((2-(isopropylsulfonyl)phenyl)amino)pyrimidin-2-yl)amino)-5-isopropoxy-2-methylphenyl)piperidin-1-yl)-5-oxopentanamido)-3,3-dimethylbutanoyl)-4-hydroxy-N-(4-(4-methylthiazol-5-yl)benzyl)pyrrolidine-2-carboxamide] | 100 to 500 | 209 |  |
| Cc1cc(Nc2ncc(Cl)c(Nc3ccccc3S(=O)(=O)C(C)C)n2)c(OC(C)C)cc1C1CCN(C(=O)CCCCC(=O)N[C@H](C(=O)N2C[C@H](O)C[C@H]2C(=O)NCc2ccc(-c3scnc3C)cc2)C(C)(C)C)CC1 [SIAIS074021, (2S,4R)-1-((S)-2-(6-(4-(4-((5-chloro-4-((2-(isopropylsulfonyl)phenyl)amino)pyrimidin-2-yl)amino)-5-isopropoxy-2-methylphenyl)piperidin-1-yl)-6-oxohexanamido)-3,3-dimethylbutanoyl)-4-hydroxy-N-(4-(4-methylthiazol-5-yl)benzyl)pyrrolidine-2-carboxamide] | 50 to 100 | 125 |  |
| Cc1cc(Nc2ncc(Cl)c(Nc3ccccc3S(=O)(=O)C(C)C)n2)c(OC(C)C)cc1C1CCN(C(=O)CCCCCC(=O)N[C@H](C(=O)N2C[C@H](O)C[C@H]2C(=O)NCc2ccc(-c3scnc3C)cc2)C(C)(C)C)CC1 [SIAIS074022, (2S,4R)-1-((S)-2-(7-(4-(4-((5-chloro-4-((2-(isopropylsulfonyl)phenyl)amino)pyrimidin-2-yl)amino)-5-isopropoxy-2-methylphenyl)piperidin-1-yl)-7-oxoheptanamido)-3,3-dimethylbutanoyl)-4-hydroxy-N-(4-(4-methylthiazol-5-yl)benzyl)pyrrolidine-2-carboxamide] | 20 to 100 | 269 |  |
| Cc1cc(Nc2ncc(Cl)c(Nc3ccccc3S(=O)(=O)C(C)C)n2)c(OC(C)C)cc1C1CCN(C(=O)CCCCCCCC(=O)N[C@H](C(=O)N2C[C@H](O)C[C@H]2C(=O)NCc2ccc(-c3scnc3C)cc2)C(C)(C)C)CC1 [SIAIS074024, (2S,4R)-1-((S)-2-(9-(4-(4-((5-chloro-4-((2-(isopropylsulfonyl)phenyl)amino)pyrimidin-2-yl)amino)-5-isopropoxy-2-methylphenyl)piperidin-1-yl)-9-oxononanamido)-3,3-dimethylbutanoyl)-4-hydroxy-N-(4-(4-methylthiazol-5-yl)benzyl)pyrrolidine-2-carboxamide] | 10 to 50 | 721 | concentration at which ALK protein level was reduced ([2]; H3122 cells, western blot): 50 nM |
| Cc1cc(Nc2ncc(Cl)c(Nc3ccccc3S(=O)(=O)C(C)C)n2)c(OC(C)C)cc1C1CCN(C(=O)CCCCCCCCC(=O)N[C@H](C(=O)N2C[C@H](O)C[C@H]2C(=O)NCc2ccc(-c3scnc3C)cc2)C(C)(C)C)CC1 [SIAIS074025, (2S,4R)-1-((S)-2-(10-(4-(4-((5-chloro-4-((2-(isopropylsulfonyl)phenyl)amino)pyrimidin-2-yl)amino)-5-isopropoxy-2-methylphenyl)piperidin-1-yl)-10-oxodecanamido)-3,3-dimethylbutanoyl)-4-hydroxy-N-(4-(4-methylthiazol-5-yl)benzyl)pyrrolidine-2-carboxamide] | 100 to 500 | 1240 |  |
| Cc1cc(Nc2ncc(Cl)c(Nc3ccccc3S(=O)(=O)C(C)C)n2)c(OC(C)C)cc1C1CCN(C(=O)CCOCCOCCNc2cccc3c2C(=O)N(C2CCC(=O)NC2=O)C3=O)CC1 (stereo not drawn) [SIAIS151023, 4-((2-(2-(3-(4-(4-((5-chloro-4-((2-(isopropylsulfonyl)phenyl)amino)pyrimidin-2-yl)amino)-5-isopropoxy-2-methylphenyl)piperidin-1-yl)-3-oxopropoxy)ethoxy)ethyl)amino)-2-(2,6-dioxopiperidin-3-yl)isoindoline-1,3-dione] | 10 to 100 | 15 | IC50 ([3]; CTG (Cell Titer Glo)): 76 nM |
| Cc1cc(Nc2ncc(Cl)c(Nc3ccccc3S(=O)(=O)C(C)C)n2)c(OC(C)C)cc1C1CCN(C(=O)CCOCCOCCOCCNc2cccc3c2C(=O)N(C2CCC(=O)NC2=O)C3=O)CC1 (stereo not drawn) [SIAIS151028, 4-((2-(2-(2-(3-(4-(4-((5-chloro-4-((2-(isopropylsulfonyl)phenyl)amino)pyrimidin-2-yl)amino)-5-isopropoxy-2-methylphenyl)piperidin-1-yl)-3-oxopropoxy)ethoxy)ethoxy)ethyl)amino)-2-(2,6-dioxopiperidin-3-yl)isoindoline-1,3-dione] | 20 to 100 | 6 | IC50 (SR (NPM-ALK) cells; [7]): 38 nM; IC50 ([3]; CTG (Cell Titer Glo)): 80 nM |
| Cc1cc(Nc2ncc(Cl)c(Nc3ccccc3S(=O)(=O)C(C)C)n2)c(OC(C)C)cc1C1CCN(C(=O)CCOCCOCCOCCOCCOCCNc2cccc3c2C(=O)N(C2CCC(=O)NC2=O)C3=O)CC1 (stereo not drawn) [SIAIS151029, 4-((18-(4-(4-((5-chloro-4-((2-(isopropylsulfonyl)phenyl)amino)pyrimidin-2-yl)amino)-5-isopropoxy-2-methylphenyl)piperidin-1-yl)-18-oxo-3,6,9,12,15-pentaoxaoctadecyl)amino)-2-(2,6-dioxopiperidin-3-yl)isoindoline-1,3-dione] | 10 to 50 | 23 | IC50 ([3]; CTG (Cell Titer Glo)): 95 nM |
| Cc1cc(Nc2ncc(Cl)c(Nc3ccccc3S(=O)(=O)C(C)C)n2)c(OC(C)C)cc1C1CCN(C(=O)CCOCCNc2cccc3c2C(=O)N(C2CCC(=O)NC2=O)C3=O)CC1 (stereo not drawn) [SIAIS151031, 4-((2-(3-(4-(4-((5-chloro-4-((2-(isopropylsulfonyl)phenyl)amino)pyrimidin-2-yl)amino)-5-isopropoxy-2-methylphenyl)piperidin-1-yl)-3-oxopropoxy)ethyl)amino)-2-(2,6-dioxopiperidin-3-yl)isoindoline-1,3-dione] | 100 to 500 | 7 | IC50 (SR (NPM-ALK) cells; [7]): 85 nM; IC50 ([3]; CTG (Cell Titer Glo)): 81 nM |
| Cc1cc(Nc2ncc(Cl)c(Nc3ccccc3S(=O)(=O)C(C)C)n2)c(OC(C)C)cc1C1CCN(C(=O)CCCNc2cccc3c2C(=O)N(C2CCC(=O)NC2=O)C3=O)CC1 (stereo not drawn) [SIAIS151035, 4-((4-(4-(4-((5-chloro-4-((2-(isopropylsulfonyl)phenyl)amino)pyrimidin-2-yl)amino)-5-isopropoxy-2-methylphenyl)piperidin-1-yl)-4-oxobutyl)amino)-2-(2,6-dioxopiperidin-3-yl)isoindoline-1,3-dione] | 50 to 100 | 33 |  |
| Cc1cc(Nc2ncc(Cl)c(Nc3ccccc3S(=O)(=O)C(C)C)n2)c(OC(C)C)cc1C1CCN(C(=O)CNc2cccc3c2C(=O)N(C2CCC(=O)NC2=O)C3=O)CC1 (stereo not drawn) [SIAIS151037, 4-((2-(4-(4-((5-chloro-4-((2-(isopropylsulfonyl)phenyl)amino)pyrimidin-2-yl)amino)-5-isopropoxy-2-methylphenyl)piperidin-1-yl)-2-oxoethyl)amino)-2-(2,6-dioxopiperidin-3-yl)isoindoline-1,3-dione] | 50 to 100 | 151 |  |
| COc1cc(N2CCC(N3CCN(C(=O)CCOCCNc4cccc5c4C(=O)N(C4CCC(=O)NC4=O)C5=O)CC3)CC2)ccc1Nc1ncc(Cl)c(Nc2ccccc2P(C)(C)=O)n1 (stereo not drawn) [SIAIS164007, 4-((2-(3-(4-(1-(4-((5-chloro-4-((2-(dimethylphosphoryl)phenyl)amino)pyrimidin-2-yl)amino)-3-methoxyphenyl)piperidin-4-yl)piperazin-1-yl)-3-oxopropoxy)ethyl)amino)-2-(2,6-dioxopiperidin-3-yl)isoindoline-1,3-dione] | 10 to 50 |  | IC50 (SR (NPM-ALK) cells; [8]): 3.8 ± 1.9 nM; IC50 [4]: 358 nM; IC50 [5]: 1610 nM; DC50 [6]: 1 to 10 nM |
| COc1cc(N2CCC(N3CCN(C(=O)CCCCNc4cccc5c4C(=O)N(C4CCC(=O)NC4=O)C5=O)CC3)CC2)ccc1Nc1ncc(Cl)c(Nc2ccccc2P(C)(C)=O)n1 (stereo not drawn) [SIAIS164021, 4-((5-(4-(1-(4-((5-chloro-4-((2-(dimethylphosphoryl)phenyl)amino)pyrimidin-2-yl)amino)-3-methoxyphenyl)piperidin-4-yl)piperazin-1-yl)-5-oxopentyl)amino)-2-(2,6-dioxopiperidin-3-yl)isoindoline-1,3-dione] | 1 to 10 |  | IC50 (SR (NPM-ALK) cells; [8]): 7.4 ± 5 nM; IC50 [4]: 434 nM; IC50 [5]: 2440 nM; DC50 [6]: 0.1 to 0.5 nM; concentration at which ALK proteins were degraded ([6]; SR cells, western blot): 1 nM |
